From patent US9522881B2, “Hydroxyindole carboxylic acid based inhibitors for oncogenic Src homology-2 domain containing protein tyrosine phosphatase-2 (SHP2)” (Indiana University Research and Technology Corporation, priority 2013, dated 2016)

Assays:
PTPH1 = PTPH1 (Homo sapiens (Human), UniProt P26045); test: PTP selectivity panel, pNPP; format: biochemical, mammalian; conditions: pNPP at Km
SHP1 = SHP1 (Homo sapiens (Human), UniProt P29350); test: PTP selectivity panel, pNPP; format: biochemical, mammalian
Sequence of SHP1 (P29350 whole entry): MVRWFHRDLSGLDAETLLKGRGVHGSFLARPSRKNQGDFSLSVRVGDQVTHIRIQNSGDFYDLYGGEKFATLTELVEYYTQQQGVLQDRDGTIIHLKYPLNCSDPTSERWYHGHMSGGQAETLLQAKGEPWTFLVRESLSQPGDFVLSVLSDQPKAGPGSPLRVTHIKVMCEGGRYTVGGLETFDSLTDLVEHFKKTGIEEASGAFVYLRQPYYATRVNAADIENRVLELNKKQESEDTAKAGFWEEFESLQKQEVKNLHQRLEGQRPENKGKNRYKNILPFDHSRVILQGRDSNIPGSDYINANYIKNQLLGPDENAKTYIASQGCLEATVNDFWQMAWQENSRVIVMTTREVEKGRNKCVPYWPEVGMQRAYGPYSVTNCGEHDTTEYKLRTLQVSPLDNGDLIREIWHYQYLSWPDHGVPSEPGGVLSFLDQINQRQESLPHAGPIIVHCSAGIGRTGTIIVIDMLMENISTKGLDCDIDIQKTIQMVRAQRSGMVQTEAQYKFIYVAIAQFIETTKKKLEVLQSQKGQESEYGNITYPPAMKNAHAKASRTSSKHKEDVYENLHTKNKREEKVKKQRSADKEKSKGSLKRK

VHR = VHR (Homo sapiens (Human), UniProt P51452); test: PTP selectivity panel, pNPP; format: biochemical, mammalian; conditions: pNPP at Km
Sequence of VHR (P51452 whole entry, species assumed): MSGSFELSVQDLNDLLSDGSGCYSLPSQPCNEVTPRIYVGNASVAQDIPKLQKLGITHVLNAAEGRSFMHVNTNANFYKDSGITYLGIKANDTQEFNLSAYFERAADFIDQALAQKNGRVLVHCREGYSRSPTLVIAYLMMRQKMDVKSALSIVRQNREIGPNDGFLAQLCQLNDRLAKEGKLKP

H1975 cells = test: H1975 cell proliferation (MTT assay); format: cell-based; conditions: Homo sapiens, NCI-H1975, 48 h, treatment for 2 days
Experimental: Particularly, human non-small cell lung carcinoma cell line H1975 was obtained from the American Tissue Culture Collection and cultured at 37° C. and 5% CO2 in RPMI-1640 (Corning, Corning, N.Y.) supplemented with 10% fetal bovine serum. 3×10^3 cells were seeded in each well of 96-well plates. After treatment with compound 11a-1 for 2 days, cells were incubated with 50 μg/ml MTT (3-(4,5-Dimethylthiazol-2-yl)-2,5-diphenyltetrazolium bromide (Sigma, St. Louis, Mo.) for 3-4 hours. Then, the culture medium was removed, DMSO was added to dissolve the formazan crystals. Wells containing only media were used for background correction. The optical density was measured spectrophotometrically at 540 nm.

[1] = system: phosphorylation of SHP2, Akt and Erk1/2; test: Phosphorylation of SHP2, Akt and Erk1/2 in 32D cells bearing KITD814V (western blot); format: cell-based; conditions: incubated 2 hours
Experimental: FIG. 8C depicts 32D myeloid cells bearing KITD814V that were starved of serum and growth factors for 6 hours and incubated with the indicated concentration of 11a-1 for 2 hours as analyzed in Example 6. After treatment, cells were lysed and equal amount of protein lysates were subjected to western blot analysis using indicated antibodies.

Sequence of PTPH1 (P26045 whole entry, species assumed): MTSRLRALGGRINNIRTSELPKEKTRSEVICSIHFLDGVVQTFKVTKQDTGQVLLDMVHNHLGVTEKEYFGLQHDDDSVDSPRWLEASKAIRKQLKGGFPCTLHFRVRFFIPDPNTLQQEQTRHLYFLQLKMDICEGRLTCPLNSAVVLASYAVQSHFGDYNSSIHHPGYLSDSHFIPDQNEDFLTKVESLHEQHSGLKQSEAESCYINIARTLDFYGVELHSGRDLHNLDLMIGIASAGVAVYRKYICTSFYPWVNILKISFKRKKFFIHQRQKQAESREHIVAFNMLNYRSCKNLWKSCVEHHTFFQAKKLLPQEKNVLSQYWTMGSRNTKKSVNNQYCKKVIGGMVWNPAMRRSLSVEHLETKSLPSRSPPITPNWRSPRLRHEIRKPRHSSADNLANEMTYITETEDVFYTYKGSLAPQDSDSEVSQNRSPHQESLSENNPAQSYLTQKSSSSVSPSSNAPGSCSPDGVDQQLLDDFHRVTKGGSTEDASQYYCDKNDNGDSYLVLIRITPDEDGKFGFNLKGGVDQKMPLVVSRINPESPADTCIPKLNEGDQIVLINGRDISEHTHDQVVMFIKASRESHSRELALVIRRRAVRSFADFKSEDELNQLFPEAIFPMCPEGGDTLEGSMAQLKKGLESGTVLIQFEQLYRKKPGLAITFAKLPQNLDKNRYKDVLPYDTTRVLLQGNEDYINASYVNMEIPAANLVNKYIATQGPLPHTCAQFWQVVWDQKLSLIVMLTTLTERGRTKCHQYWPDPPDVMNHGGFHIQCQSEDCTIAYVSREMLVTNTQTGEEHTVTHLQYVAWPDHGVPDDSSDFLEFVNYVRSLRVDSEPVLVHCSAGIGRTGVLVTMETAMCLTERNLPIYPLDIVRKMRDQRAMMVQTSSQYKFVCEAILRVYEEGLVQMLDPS

Structure (SMILES): Cn1c(-c2cccc(NC(=O)C(=O)Nc3ccc(-c4ccsc4)cc3)c2)c(I)c2cc(C(=O)O)c(O)cc21 [11a-1, 6-hydroxy-3-iodo-1-methyl-2-(3-(2-oxo-2-((4-(thiophen-3-yl)phenyl)amino)acetamido)phenyl)-1H-indole-5-carboxylic acid]
- IC50 (PTPH1): 1070 ± 70 nM
- preference for SHP2 over SHP1 (SHP1): 7 fold
- IC50 (SHP1; pNPP at Km): 1440 ± 40 nM
- IC50 (VHR): 3190 ± 90 nM
- IC50 (H1975 cells): 170 ± 20 nM
- phosphorylation of SHP2, Akt and Erk1/2 in KITD814V bearing 32D cells [1]: dose dependent inhibition
